Experimental data: patent US6855729B2, “Treatment of fibromyalgia and related fatigue syndromes using antagonists or partial agonists of 5HT1a receptors” (priority 2001, dated 2005)

Key:
5HT1a receptor = target: T1, 5HT1a receptor (Homo sapiens, UniProt P08908); assay: Buspirone challenge, prolactin release; format: in vivo; conditions: buspirone 30 mg orally; for Prolactin AUC (mean±SD): blood 0-180 min
T1 construct: Buspirone (30 mg) or matching placebo was administered orally at 0900 h (Time 0); from tissue; host or cells: living human subjects (central receptors)
T1 sequence (P08908 1-422): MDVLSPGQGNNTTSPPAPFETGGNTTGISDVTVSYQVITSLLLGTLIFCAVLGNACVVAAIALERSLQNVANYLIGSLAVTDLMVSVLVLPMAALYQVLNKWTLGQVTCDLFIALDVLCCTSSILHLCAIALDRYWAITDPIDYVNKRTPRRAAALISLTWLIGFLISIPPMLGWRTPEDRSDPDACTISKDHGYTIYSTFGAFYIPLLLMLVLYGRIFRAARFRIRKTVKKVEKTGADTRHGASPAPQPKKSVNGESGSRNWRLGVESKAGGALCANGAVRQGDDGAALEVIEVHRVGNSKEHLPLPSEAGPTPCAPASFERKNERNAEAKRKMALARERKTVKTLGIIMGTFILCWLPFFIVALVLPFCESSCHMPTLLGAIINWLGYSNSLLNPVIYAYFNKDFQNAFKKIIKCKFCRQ
Description: A total of 12 subjects (9 female/3 male) and 12 healthy comparison subjects (9 female/3 male) gave fully informed consent to take part in the study. […] All patients fulfilled criteria for both fibromyalgia (ACR criteria) and chronic fatigue syndrome (CDC criteria). […] Buspirone (30 mg) or matching placebo was administered orally at 0900 h (Time 0). Blood was taken at 0, 30, 60, 90, 120 and 180 min.

[1] = test system: patients with fibromyalgia; assay: Open label treatment study in fibromyalgia / chronic fatigue syndrome; format: in vivo, human; conditions: 2.5 mg three times daily
Description: Five patients with fibromyalgia (ACR criteria) who also met criteria for chronic fatigue syndrome (CDC criteria) gave informed consent to take part in this open label treatment study. All were treated with pindolol 2.5 mg three times daily.

Prolactin levels after challenge (5HT1a receptor; all subjects (patients and healthy))	Prolactin AUC (mean±SD) (5HT1a receptor; healthy subjects)	Prolactin AUC (mean±SD) (5HT1a receptor; patients with fibromyalgia and chronic fatigue syndrome)	Compound	Time to significant improvement in symptoms ([1]; from commencing treatment) [days]	Effect on symptoms, energy levels and general wellbeing ([1]; open label)	Patients showing a significant improvement in symptoms ([1]; open label, five patients with fibromyalgia and chronic fatigue syndrome)
rose in all subjects	27±35	49±28	O=C1CC2(CCCC2)CC(=O)N1CCCCN1CCN(c2ncccn2)CC1 [Buspirone]	–	–	–
–	–	–	CC(C)NCC(O)COc1cccc2[nH]ccc12 (racemic) [pindolol]	≤ 10	reduction in all symptoms and an increase in energy levels and general wellbeing	Four of 5
